This is an account of results in publication PMC12631437, “Evaluation of the Activity of 4‑Quinolones against Multi-Life Stages of Plasmodium spp” (ACS Omega, 2025).

The test system of data set [1] is P. falciparum V1/S strain. The experiment in a line: microbe, parasite or virus in culture. The format is cell-based, Plasmodium falciparum. To be noted: for IC50: Plasmodium falciparum. The procedure:
(§1) Healthy blood samples for parasite culture were obtained from voluntary donors (approved under protocol #28176720.9.0000.0011), processed to remove white blood cells, and stored at 2 °C–8 °C for up to 15 days. Parasite strains SB1-A6, 7G8, V1/S, and HB3 were acquired from BEI-MR4, while the ATQ R1 strain, carrying a V259L gene mutation, was generated in-house. Infected erythrocytes were cultured in RPMI 1640 medium supplemented with Hepes, sodium bicarbonate, glucose, Albumax, and gentamicin, […], and incubated in a 5% CO2, 5% O2, and 90% N2 gas mixture at 37 °C with daily medium changes. Parasitemia was monitored using Giemsa-stained blood smears.
(§2) Bioassays were conducted with synchronized ring-stage parasites using sorbitol synchronization. Antimalarial compounds were evaluated in 96-well plates, and parasite growth was assessed using a SYBR Green-based fluorescence assay The assays were conducted when the parasite quantity reached at least 70% of the ring stage. Compounds were initially added at specific concentrations in the first wells, followed by serial dilution (1:2) ranging from 20 μM to 0.009 μM. Subsequently, a solution containing parasites in RPMI medium at a hematocrit of 2% was added to each well, and the parasites were then incubated for 72 h.
(§3) To assess parasite growth, the culture medium was replaced with a lysis solution (Trisbase: 49.31%, EDTA: 30.00%, Saponin: 0.16%, Triton: 0.02%) containing the fluorescent dye SYBR Green (Sigma). After a 30 min incubation, fluorescence readings were taken to determine the 50% inhibitory concentration (IC50) of parasite growth. The IC50 values were determined using concentration–response curves generated in GraphPad 8 software. Additionally, the resistance index was calculated by comparing IC50 values obtained for the sensitive 3D7 strain with those of the resistant strains.

Data set [2] deals with P. falciparum SB1-A6 strain. The experiment in a line: SYBR Green growth assay, asexual blood stages, SB1-A6 strain. The format is cell-based, Plasmodium falciparum. The protocol: as §1, §2, §3
The subject of data set [3] is P. falciparum ATQ_R1 strain. The experiment in a line: SYBR Green growth assay, asexual blood stages, ATQ_R1 strain. The format is cell-based, Plasmodium falciparum. The note with it: for IC50: Plasmodium falciparum. The protocol: as §1, §2, §3
Data set [4] concerns P. falciparum multidrug-resistant strains. In words: SYBR Green growth assay, summary over panel of resistant strains. To be noted: Plasmodium falciparum. The format is cell-based. The procedure: as §1
Bioassays were conducted with synchronized ring-stage parasites using sorbitol synchronization. Antimalarial compounds were evaluated in 96-well plates, and parasite growth was assessed using a SYBR Green-based fluorescence assay The assays were conducted when the parasite quantity reached at least 70% of the ring stage. […]
To assess parasite growth, the culture medium was replaced with a lysis solution (Trisbase: 49.31%, EDTA: 30.00%, Saponin: 0.16%, Triton: 0.02%) containing the fluorescent dye SYBR Green (Sigma). […] The IC50 values were determined using concentration–response curves generated in GraphPad 8 software. […]

Data set [5] deals with P. berghei sexual phases in An. stephensi. In words: In vivo transmission-blocking assay, P. berghei infected CD1 mice, An. stephensi. On the set-up: species or system Plasmodium berghei. To be noted: 2 doses of 50 mg/kg 12 h apart. The procedure: For this assay, a colony of An. stephensi was used. The lab-reared An. stephensi was kept under controlled conditions, with a temperature of 26 °C ± 1 °C, a 12/12 h light/dark cycle, a relative humidity of 70% ± 10%, and fed a 30% sugar solution as needed.
Female CD1 mice (4 to 6 weeks old) were infected by intraperitoneal inoculation (i.p.) containing 10 million erythrocytes infected with P. berghei expressing the GFP fluorescent protein. After 4 days, when parasites in the sexual stages were detected via Giemsa-stained blood smears, mice with similar gametocytemia and parasitemia were randomly divided into three groups of two animals each. The groups of two mices were treated orally with compound 1 at two doses of 50 mg/kg, spaced 12 h apart. […] Following the second dose, mice were anesthetized and placed in individual cages containing approximately 50 female A. stephensi mosquitoes, which had been starved for 24 h before the assay. Blood feeding lasted for 30 min, after which unfed mosquitoes were removed. Engorged females were maintained in an insectary at 21 ± 1 °C and 60% relative humidity, receiving a 30% glucose solution.
A group of 10 mosquitoes was set aside to assess sporozoite development in salivary glands, following a protocol similar to the one described previously, with dissections performed 21 days postblood meal. Additionally, 10 μL of mouse blood was collected immediately after treatment with the compounds and incubated at room temperature for 15 min. Exflagellation was observed under optical microscopy to evaluate the effect of 4-quinolone-derived molecules on microgametocyte activity.

In data set [6] the test system is P. berghei exflagellation centers. The experiment in a line: Ex vivo exflagellation assay, blood of P. berghei infected mice. The format is cell-based, Plasmodium berghei. To be noted: 15 min incubation. The procedure:
For the ex vivo assays, a female CD1 mouse between 4 and 5 weeks of age (n = 3) was infected with P. berghei. After 4 days, when the presence of parasites (sexual phases) in the blood was observed by Giemsa-stained blood smear microscopy, the total blood from the mouse was collected into a preheated tube at 37 °C containing RPMI medium supplemented with 20% Fetal Bovine Serum (FBS) and 200 units/mL of heparin as an anticoagulant. The tube was maintained at 37 °C and centrifuged at 1500 rpm for 5 min. The supernatant was discarded, and the blood was resuspended in 20 mL of RPMI medium supplemented with 20% FBS.
One milliliter of resuspended blood was added to each well of a 6-well plate containing 5 μM methylene blue (positive control), test compound 1 at 10 μM and 1 μM, and DMSO (negative control). After 15 min, the wells were homogenized, and 10 μL of the content was collected into an Eppendorf tube and incubated at room temperature for another 15 min. The sample was then transferred to a Neubauer chamber, and exflagellation centers were counted using an optical microscope at 40× magnification.

Data set [7] in a line: Mitochondrial toxicity, HepG2 cells cultured in glucose or galactose (resazurin). The format is cell-based. The note with it: human, 3.125–50 μM, read-out: cell viability. The procedure: To evaluate mitochondrial toxicity, HepG2 cells were cultured in RPMI-1640 medium under two metabolic conditions: one group was maintained in standard RPMI supplemented with 2 g/L glucose (glucose condition), while the second group was gradually adapted to rely on galactose as the primary energy source. For this adaptation, glucose levels were reduced by 20% every 2 days until reaching a final concentration of 20% of the original glucose amount. On the day of the assay, the […] cells were cultured in glucose-free RPMI medium supplemented with 10 mM galactose. When cells reached 80% confluence, they were detached using 2 mL of trypsin-EDTA solution (0.2 g of EDTA) for 5 min at 37 °C, then resuspended in fresh medium and centrifuged at 100 × g for 1 min. After centrifugation, cells were counted using a Neubauer chamber and seeded at […] per well in 96-well plates containing 180 μL of culture medium. Plates were incubated at 37 °C with 5% CO2 for 12–16 h to allow for cell adhesion. […] After treatment, 40 μL of a 0.15 mg/mL resazurin solution (RSZ) was added to each well and incubated for an additional 5 h. RSZ is a nontoxic, cell-permeable blue dye that is reduced by metabolically active cells to highly fluorescent pink resorufin. Fluorescence was measured using a fluorimeter with excitation/emission at 560/590 nm. Cell viability was calculated relative to untreated controls (set at 100%), determined using GraphPad Prism 8.
On the technique in general: The colour change of resazurin is a common sign of viable cells or microbes.

For data set [8], the system named is Plasmodium over mammalian cells. To be noted: specificity for Plasmodium over mammalian cells; previous studies; cited from earlier work.

Where “and” joins values, the source holds several entries; their conditions need not be identical. Equal values may be shown once. Read-outs that look alike come from different tables or passages of the source.

`CCCCCCCCCCCc1cc(=O)c2ccccc2[nH]1` [compound 1, 2-Undecilquinolin-4(1H)-one]: the IC50 was 800 ± 100 nM in data set [1] (72 h); 700 nM in data set [1] (read-out: IC50 (Figure S1)); 7000 ± 1000 nM in data set [2] (Plasmodium falciparum, 72 h); 600 ± 100 nM in data set [3] (72 h); 800 nM in data set [3] (read-out: IC50 (Figure S1)); 60 to 800 nM in data set [4] (HB3, read-out: IC50 values). In addition, the IC50 in data set [4] (TM90C6B, read-out: submicromolar activity) lay in the range of 290 to 790 nM. The figures for the “RI (resistance index)” value in data set [1] (ratio of IC50 V1S to 3D7), in data set [2] (ratio of IC50 SB1-A6 to 3D7) and in data set [3] (ratio of IC50 ATQ_R1 to 3D7) were 4.0, 35 and 3.0, respectively. The “Prevalence of infection in An. stephensi mosquitoes (Positive)” value in data set [5] is reported as 70%. Further, in data set [5] (21 days postinfection), the “reduction in the infection rate (salivary glands)” value is on record as 91%. Moreover, in data set [5] (21 days postinfection, 50 mg/kg), the “reduction in the number of P. berghei sporozoites (in vivo)” value is 91,30% and 91%. The “reduction in male exflagellation centers (in vivo)” value in data set [5] (blood at mosquito feeding, 50 mg/kg) was 85,17% and 85%. In addition, the “reduction of exflagellation centers (ex vivo)” value is 23,8% and 24% in data set [6] (1 μM); 63,9% and 64% in data set [6] (10 μM). In addition, the viability (usually a read-out of living cells in per cent, often relative to untreated cells) at 24 h in data set [7] (HepG2 cells adapted to galactose, HepG2 in galactose) is less than 0.5%; in data set [7] (HepG2 cells cultured in glucose, HepG2 in glucose), greater than 50%. Further, in data set [8], the “selectivity index (SI)” value is reported as greater than 120.
